Test results taken from publication PMC4291083, “Ex Vivo Characterization of a Novel Iodine-123-Labelled Aminomethylchroman as a Potential Agonist Ligand for SPECT Imaging of Dopamine D2/3 Receptors” (International Journal of Molecular Imaging, 2014).
Marks after values point to notes of the source that are not given here.

Experiment: Biodistribution studies in rats
Assay type: in vivo, Wistar rats
Conditions: male rats
Protocol: [^123I]-1 (SA ≥ 37 MBq/nmol) was received after radiolabelling in an isotonic acetate (9% EtOH) buffer (pH 4.8). The solution was passed through a membrane filter (0.2 μm) and was diluted to the proper concentrations. Male Wistar rats (approximately 250 g body weight, obtained from Harlan/Charles River, Zeist, Netherlands) received an intravenous injection in the tail vein of approximately 3.7 MBq/0.4 mL buffer of [^123I]-1 under O2/CO2 anaesthesia. Distribution to the tissue was measured 15 min, 30 min, and 1, 2, 3, 4, and 24 h after the injection to determine the time course of uptake in several organs, including the brain. Four rats were killed at each time point via bleeding by heart puncture (to minimize contribution of blood activity) under O2/CO2 anaesthesia followed by cervical dislocation. Brain regions (cerebellum, frontal and prefrontal cortex, olfactory bulbs, pituitary, medulla with pons, midbrain, striatum, hypothalamus, hippocampus, and thalamus) and various peripheral tissues (heart, lung, liver, spleen, kidney, muscle, fat, and thymus) were quickly excised and weighted. The activity of [^123I] was assayed in a gamma counter, and data was corrected for decay and the amount of radioactivity was presented as percentage of the injected dose, multiplied by the body weight in kilograms, per gram tissue or blood. Selective uptake in the striatum was determined by calculating the ratio of radioactivity in the striatum in relation to that in the cerebellum, since the density of dopamine D2/3 receptor is negligible in this brain area in rats.

## Oc1ccc2c(c1)O[C@@H](CNCc1ccc([123I])cc1)CC2 [[^123I]-1]
3 h after i.v. injection
  123I radioactivity, Fat: 0.337 ± 0.065 %ID × kg/g
  123I radioactivity, Frontal cortex: 0.232 ± 0.095 %ID × kg/g
  123I radioactivity, Hippocampus: 0.230 ± 0.085 %ID × kg/g
  123I radioactivity, Hypothalamus: 0.233 ± 0.070 %ID × kg/g
  123I radioactivity, Kidney: 1.336 ± 0.175 %ID × kg/g
  123I radioactivity, Midbrain: 0.214 ± 0.062 %ID × kg/g
  123I radioactivity, Olfactory b.: 0.234 ± 0.087 %ID × kg/g
  123I radioactivity, Pituitary: 0.548 ± 0.149 %ID × kg/g
  123I radioactivity, Pons/medulla: 0.229 ± 0.066 %ID × kg/g
  123I radioactivity, Spleen: 0.284 ± 0.092 %ID × kg/g
  123I radioactivity, Striatum: 0.232 ± 0.065 %ID × kg/g
  123I radioactivity, Thalamus: 0.279 ± 0.091 %ID × kg/g
4 h after i.v. injection
  123I radioactivity, Fat: 0.174 ± 0.056 %ID × kg/g
  123I radioactivity, Frontal cortex: 0.109 ± 0.057 %ID × kg/g
  123I radioactivity, Hippocampus: 0.093 ± 0.059 %ID × kg/g
  123I radioactivity, Hypothalamus: 0.114 ± 0.051 %ID × kg/g
  123I radioactivity, Kidney: 1.005 ± 0.397 %ID × kg/g
  123I radioactivity, Midbrain: 0.098 ± 0.059 %ID × kg/g
  123I radioactivity, Olfactory b.: 0.112 ± 0.043 %ID × kg/g
  123I radioactivity, Pituitary: 0.307 ± 0.056 %ID × kg/g
  123I radioactivity, Pons/medulla: 0.106 ± 0.057 %ID × kg/g
  123I radioactivity, Spleen: 0.166 ± 0.087 %ID × kg/g
  123I radioactivity, Striatum: 0.101 ± 0.051 %ID × kg/g
  123I radioactivity, Thalamus: 0.114 ± 0.047 %ID × kg/g
24 h after i.v. injection
  123I radioactivity, Fat: 0.016 ± 0.005 %ID × kg/g
  123I radioactivity, Frontal cortex: 0.024 ± 0.002 %ID × kg/g
  123I radioactivity, Hippocampus: 0.014 ± 0.001 %ID × kg/g
  123I radioactivity, Hypothalamus: 0.027 ± 0.005 %ID × kg/g
  123I radioactivity, Kidney: 0.150 ± 0.026 %ID × kg/g
  123I radioactivity, Midbrain: 0.020 ± 0.003 %ID × kg/g
  123I radioactivity, Olfactory b.: 0.020 ± 0.001 %ID × kg/g
  123I radioactivity, Pituitary: 0.082 ± 0.006 %ID × kg/g
  123I radioactivity, Pons/medulla: 0.017 ± 0.001 %ID × kg/g
  123I radioactivity, Spleen: 0.022 ± 0.003 %ID × kg/g
  123I radioactivity, Striatum: 0.027 ± 0.010 %ID × kg/g
  123I radioactivity, Thalamus: 0.033 ± 0.006 %ID × kg/g
15 min after i.v. injection
  123I radioactivity, Frontal cortex: 2.567 ± 1.933 %ID × kg/g
  123I radioactivity, Hippocampus: 0.826 ± 0.475 %ID × kg/g
  123I radioactivity, Hypothalamus: 1.335 ± 0.766 %ID × kg/g
  123I radioactivity, Kidney: 1.618 ± 0.774 %ID × kg/g
  123I radioactivity, Midbrain: 3.566 ± 4.660 %ID × kg/g
  123I radioactivity, Muscle: 0.412 ± 0.466 %ID × kg/g
  123I radioactivity, Olfactory b.: 0.445 ± 0.439 %ID × kg/g
  123I radioactivity, Pons/medulla: 1.188 ± 0.587 %ID × kg/g
  123I radioactivity, Spleen: 2.428 ± 1.971 %ID × kg/g
  123I radioactivity, Striatum: 1.231 ± 1.299 %ID × kg/g
  123I radioactivity, Thalamus: 1.556 ± 1.015 %ID × kg/g
30 min after i.v. injection
  123I radioactivity, Frontal cortex: 2.329 ± 0.904 %ID × kg/g
  123I radioactivity, Hippocampus: 2.155 ± 0.675 %ID × kg/g
  123I radioactivity, Hypothalamus: 1.699 ± 0.526 %ID × kg/g
  123I radioactivity, Kidney: 1.735 ± 0.353 %ID × kg/g
  123I radioactivity, Midbrain: 1.715 ± 0.577 %ID × kg/g
  123I radioactivity, Muscle: 0.363 ± 0.049 %ID × kg/g
  123I radioactivity, Olfactory b.: 1.325 ± 0.402 %ID × kg/g
  123I radioactivity, Pituitary: 3.367 ± 1.033 %ID × kg/g
  123I radioactivity, Pons/medulla: 1.486 ± 0.274 %ID × kg/g
  123I radioactivity, Spleen: 1.270 ± 0.282 %ID × kg/g
  123I radioactivity, Striatum: 1.947 ± 0.666 %ID × kg/g
  123I radioactivity, Thalamus: 1.978 ± 0.618 %ID × kg/g
1 h after i.v. injection
  123I radioactivity, Frontal cortex: 0.722 ± 0.061 %ID × kg/g
  123I radioactivity, Hippocampus: 0.866 ± 0.089 %ID × kg/g
  123I radioactivity, Hypothalamus: 0.747 ± 0.111 %ID × kg/g
  123I radioactivity, Kidney: 1.770 ± 0.302 %ID × kg/g
  123I radioactivity, Midbrain: 0.754 ± 0.040 %ID × kg/g
  123I radioactivity, Olfactory b.: 0.631 ± 0.036 %ID × kg/g
  123I radioactivity, Pituitary: 1.561 ± 0.538 %ID × kg/g
  123I radioactivity, Pons/medulla: 0.761 ± 0.040 %ID × kg/g
  123I radioactivity, Spleen: 0.749 ± 0.093 %ID × kg/g
  123I radioactivity, Striatum: 0.779 ± 0.037 %ID × kg/g
  123I radioactivity, Thalamus: 0.779 ± 0.049 %ID × kg/g
2 h after i.v. injection
  123I radioactivity, Frontal cortex: 0.223 ± 0.028 %ID × kg/g
  123I radioactivity, Hippocampus: 0.255 ± 0.040 %ID × kg/g
  123I radioactivity, Hypothalamus: 0.218 ± 0.036 %ID × kg/g
  123I radioactivity, Kidney: 1.081 ± 0.154 %ID × kg/g
  123I radioactivity, Midbrain: 0.229 ± 0.046 %ID × kg/g
  123I radioactivity, Olfactory b.: 0.218 ± 0.025 %ID × kg/g
  123I radioactivity, Pituitary: 0.918 ± 0.632 %ID × kg/g
  123I radioactivity, Pons/medulla: 0.237 ± 0.045 %ID × kg/g
  123I radioactivity, Spleen: 0.266 ± 0.047 %ID × kg/g
  123I radioactivity, Striatum: 0.226 ± 0.034 %ID × kg/g
  123I radioactivity, Thalamus: 0.234 ± 0.037 %ID × kg/g
15 min after i.v. injection, only 1 sample
  123I radioactivity, Pituitary: 1.401^* %ID × kg/g
